According to ChEMBL document CHEMBL1131602 (J Med Chem, 1998):

Assays:
[1] = target: T1, Bifunctional dihydrofolate reductase-thymidylate synthase (Plasmodium falciparum K1, UniProt P13922); assay: Binding affinity was evaluated as inhibition of mutant (C59R + S108N) Plasmodium falciparum DHFR-TS.
Target sequence in this assay (P13922 whole entry): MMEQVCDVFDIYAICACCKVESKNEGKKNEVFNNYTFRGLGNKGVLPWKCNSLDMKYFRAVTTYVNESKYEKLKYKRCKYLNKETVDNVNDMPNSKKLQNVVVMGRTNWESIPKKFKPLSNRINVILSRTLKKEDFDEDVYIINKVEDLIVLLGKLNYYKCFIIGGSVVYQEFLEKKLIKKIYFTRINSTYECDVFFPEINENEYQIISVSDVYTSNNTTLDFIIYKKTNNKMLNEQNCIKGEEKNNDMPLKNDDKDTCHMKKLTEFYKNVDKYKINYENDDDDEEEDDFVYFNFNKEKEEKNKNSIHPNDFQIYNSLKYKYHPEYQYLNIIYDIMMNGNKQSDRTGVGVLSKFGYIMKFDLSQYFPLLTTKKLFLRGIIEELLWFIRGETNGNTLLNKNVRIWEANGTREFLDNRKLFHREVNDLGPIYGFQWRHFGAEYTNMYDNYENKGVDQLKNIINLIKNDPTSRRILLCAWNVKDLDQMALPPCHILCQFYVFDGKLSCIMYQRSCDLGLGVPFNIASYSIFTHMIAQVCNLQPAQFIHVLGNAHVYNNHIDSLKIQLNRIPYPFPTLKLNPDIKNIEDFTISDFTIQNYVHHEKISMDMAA

[2] = Ratio of inhibitions against mutant and wild type (WT) Plasmodium falciparum DHFR-TS.
[3] = target: T1, Bifunctional dihydrofolate reductase-thymidylate synthase; assay: Binding affinity was evaluated as inhibition of recombinant wild type (WT) Plasmodium falciparum DHFR-TS.
Target sequence in this assay (P13922 whole entry): as above

[4] = target: T1, Bifunctional dihydrofolate reductase-thymidylate synthase; assay: Inhibitory activity against mutant Plasmodium falciparum DHFR-TS
Target sequence in this assay (P13922 whole entry, looked up): as the sequence (P13922 whole entry) above

[5] = target: T1, Bifunctional dihydrofolate reductase-thymidylate synthase; assay: Inhibitory activity against recombinant wild type (WT) Plasmodium falciparum DHFR-TS
Target sequence in this assay (P13922 whole entry): as above

[6] = test system: Plasmodium falciparum; assay: In vitro inhibition of Plasmodium falciparum HB3 (S108N) culture; format: functional, organism-based
[7] = test system: Plasmodium falciparum; assay: In vitro inhibition of Plasmodium falciparum K1 (S108N + C59R) culture; format: functional, organism-based

Row | Structure (SMILES) | Ki [1] [nM] | Ratio [2] | Ki [3] [nM] | IC50 [4] [nM] | IC50 [5] [nM] | IC50 [6] [nM] | IC50 [7] [nM] | Ki [4] [nM]
1 | CC1(C)N=C(N)N=C(N)N1c1ccc(Cl)cc1 [CYCLOGUANIL] | 82.1 | 31.5 | 2.6 | – | – | – | – | –
2 | CCc1nc(N)nc(N)c1-c1cccc(Cl)c1 | 2.4 | 8 | 0.3 | 12.7 | 2.7 | – | – | –
3 | CCc1nc(N)nc(N)c1-c1ccc(Cl)cc1 [PYRIMETHAMINE] | – | – | – | – | – | 1.2 | 10.2 | –
4 | NC(=O)c1ccc[n+]([C@H]2O[C@@H](COP(=O)([O-])OP(=O)(O)OC[C@H]3O[C@@H](n4cnc5c(N)ncnc54)[C@H](OP(=O)(O)O)[C@@H]3O)[C@H](O)[C@@H]2O)c1 [NICOTINAMIDE ADENINE DINUCLEOTIDE PHOSPHATE] | 14.5 | 3.09 | 4.7 | – | – | – | – | –
5 | CCc1nc(N)nc(N)c1-c1cccc(OC)c1 | 14 | 13.1 | 1.07 | 73 | 9.3 | 0.2 | 3.7 | 14
